Where two headings read alike, the source gives them in different places.
Experiments:
[1] = target: T1, A1 receptor cell membrane (human origin) (Homo sapiens, UniProt P30542); test: Competitive inhibition constant (Ki) for adenosine A1 receptor, [3H]-DPCPX radioligand binding; details: [3H]-DPCPX 1.0 nM
T1 construct: purchased PerkinElmer ES-010-M400UA
T1 sequence (P30542 1-326): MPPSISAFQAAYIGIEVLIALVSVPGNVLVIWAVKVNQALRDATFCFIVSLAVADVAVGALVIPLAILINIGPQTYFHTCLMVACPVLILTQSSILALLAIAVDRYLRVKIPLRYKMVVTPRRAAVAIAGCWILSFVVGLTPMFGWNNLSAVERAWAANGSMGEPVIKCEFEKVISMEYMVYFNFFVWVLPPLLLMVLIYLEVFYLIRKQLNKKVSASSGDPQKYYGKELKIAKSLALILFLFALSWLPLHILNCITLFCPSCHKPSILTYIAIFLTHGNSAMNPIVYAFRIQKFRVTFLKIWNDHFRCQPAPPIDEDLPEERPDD
Description: Experimental Example 1: Determination of the Competitive Inhibition Constant (Ki) for Adenosine A1 and A2a Receptors
[^3H]-DPCPX: PerkinElmer, NET974250UC
A1 receptor cell membrane (human origin): PerkinElmer, ES-010-M400UA
A1 test buffer: 25 mM HEPES, 5 mM MgCl2, 1 mM CaCl2, 100 mM NaCl, pH7.4
A1 washing buffer: 25 mM HEPES, 5 mM MgCl2, 1 mM CaCl2, 100 mM NaCl, pH7.4
(§1) The A1 receptor cell membrane was diluted to 0.025 μg/μl with the A1 test buffer and the A2a receptor cell membrane was diluted to 0.05 μg/μl with the A2a test buffer to obtain an A1 receptor cell membrane dilution and an A2a receptor cell membrane dilution.
(§2) The tested compound and CGS15943 were gradiently diluted with DMSO. 1 μl test compound, high-value control (0.5% DMSO), low-value control (1000 nM CGS15943) were added to a 96-well plate, wherein each well was added with 100 μl A1 receptor cell membrane dilution (containing 2.5 μg cell membrane) to obtain an A1 detection plate. Through the same steps, 100 μl A2a receptor cell membrane dilution (containing 5.0 μg cell membrane) was added to each well of a 96-well plate to obtain an A2a detection plate.
100 μl of radioisotope-labelled ligand [^3H]-DPCPX (diluted in A1 test buffer, working concentration 1.0 nM) was added to the A1 detection plate, and 100 μl of radioisotope-labelled ligand [^3H]-CGS-21680 (diluted in A2a test buffer, working concentration 6.0 nM) was added to the A2a detection plate. The A1 and A2a detection plates were sealed with a tap, and incubated at room temperature for 1 h and 2 h, respectively.
(§3) Unifilter-96 GF/C filter plate was prepared. The Unifilter-96 GF/C filter plate was added with 50 μl 0.3% PEI in each well, and incubated at room temperature for no less than 0.5 h.
(§4) After the incubation, the reaction solutions in the A1 detection plate and the A2a detection plate were transferred to two Unifilter-96 GF/C filter plates. The filter plates were washed with the corresponding pre-cooled washing buffers, then oven dried. After sealing the bottom of the filter plates, 50 μl of Microscint 20 cocktail scintillation fluid was added. After sealing the top of the filter plates, the plates were read in the counter MicroBeta2 Reader.
(§5) Data analysis: The inhibition rate was calculated according to the following formula:
(§6) Inhibition rate %=100−(the signal value of the tested wells−the signal average of the low-value control)/(the signal average of the high-value control−the signal average of the low-value control)*100.
(§7) IC50 was fitted by EXCEL XLfit. The competitive inhibition constant (Ki) was calculated according to the formula: Ki=IC50/(1+the concentration of the isotope-labelled ligands/Kd); Kd is the dissociation constant of the isotope-labeled ligands.

[2] = target: T2, A2a receptor cell membrane (human origin) (Homo sapiens, UniProt P29274); test: Competitive inhibition constant (Ki) for adenosine A2a receptor, [3H]-CGS-21680 radioligand binding; details: for Ki(A1)/Ki(A2a): selectivity ratio A1 over A2a
T2 construct: purchased PerkinElmer RBHA2AM400UA
Description: A2a receptor cell membrane (human origin): PerkinElmer, RBHA2AM400UA
A2a test buffer: 50 mM Tris-HCl, 10 mM MgCl2, 1 mM EDTA, pH7.4
as §1, §2
The A1 and A2a detection plates were sealed with a tap, and incubated at room temperature for 1 h and 2 h, respectively.
as §3, §4, §5, §6, §7

[3] = human A2a receptor cell membrane, [3H]-CGS-21680 6.0 nM, read-out: Ki(A2a)

T2 sequence (P29274 whole entry): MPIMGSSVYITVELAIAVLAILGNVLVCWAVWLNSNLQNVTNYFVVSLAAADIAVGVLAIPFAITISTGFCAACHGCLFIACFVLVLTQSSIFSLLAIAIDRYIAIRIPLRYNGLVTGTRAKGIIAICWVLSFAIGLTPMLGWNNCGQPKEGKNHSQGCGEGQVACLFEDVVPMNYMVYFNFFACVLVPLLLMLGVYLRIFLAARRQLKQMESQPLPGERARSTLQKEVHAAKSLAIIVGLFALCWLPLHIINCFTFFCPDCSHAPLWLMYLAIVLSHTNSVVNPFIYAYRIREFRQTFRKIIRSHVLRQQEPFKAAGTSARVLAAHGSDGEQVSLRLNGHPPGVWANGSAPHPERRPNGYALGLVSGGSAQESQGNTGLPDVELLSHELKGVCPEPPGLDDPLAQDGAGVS

Compound	Ki [1] [µM]	Ki [2, 3] [µM]	Ki(A1)/Ki(A2a) [2]	Ki [2] [µM]
Cc1ncnc2ccc(-c3cc(-c4cnn(CCN(C)C)c4)c(N)nc3-c3ccc(F)cc3)cc12 [Compound 16, 3-(1-(2-(dimethylamino)ethyl)-1H-pyrazol-4-yl)-6-(4-fluorophenyl)-5-(4-methylquinazolin-6-yl)pyridin-2-amine]	1.38	0.0167	82.6	
Cc1ncnc2ccc(-c3cc(C(N)=O)c(N)nc3-c3ccccc3F)cc12 [Compound 13, 2-amino-6-(2-fluorophenyl)-5-(4-methylquinazolin-6-yl) nicotinamide]	4.38	0.0122	359.0	
Cc1ncnc2ccc(-c3cc(C#N)c(N)nc3-c3ccc(F)cc3)cc12 [Compound 5, 2-amino-6-(4-fluorophenyl)-5-(4-methylquinazolin-6-yl) nicotinonitrile]	0.683	0.0021	325.3	
Cc1ncnc2ccc(-c3cc(Br)c(N)nc3-c3ccc(F)cc3)cc12 [Compound 2, 3-bromo-6-(4-fluorophenyl)-5-(4-methylquinazolin-6-yl)pyridin-2-amine]	0.291	0.0026	112.1	
Cc1ncnc2ccc(-c3ccc(N)nc3-c3ccc(F)cc3)cc12 [Compound 1, 6-(4-fluorophenyl)-5-(4-methylquinazolin-6-yl)pyridin-2-amine]			339.0	
Cc1ncnc2ccc(-c3cc(-c4nnc(C(N)=O)o4)c(N)nc3-c3ccc(F)cc3)cc12 [Compound 25, 5-(2-amino-6-(4-fluorophenyl)-5-(4-methylquinazolin-6-yl)pyridin-3-yl)-1,3,4-oxadiazol-2-carboxamide]	0.133	0.0023	57.6	
Cc1ccnc2ccc(-c3cc(-c4nnc(C(N)=O)o4)c(N)nc3-c3ccc(F)cc3)cc12 [Compound 29, 5-(2-amino-6-(4-fluorophenyl)-5-(4-methylquinolin-6-yl)pyridin-3-yl)-1,3,4-oxadiazol-2-carboxamide]	0.03	0.0012	25.0	
Cc1ncnc2ccc(-c3cc(-c4cnn(C)c4)c(N)nc3-c3ccc(F)cc3)cc12 [Compound 8, 6-(4-fluorophenyl)-3-(1-methyl-1H-pyrazol-4-yl)-5-(4-methylquinazolin-6-yl)pyridin-2-amine]	0.713	0.0048	148.5	
NC(=O)c1cc(-c2ccncc2)c(-c2cccc(F)c2)nc1N [Control compound 1, reference compound]	0.0257	0.138	0.2	
CNC(=O)c1cc(-c2ccc3ncnc(C)c3c2)c(-c2ccc(F)cc2)nc1N [Compound 7, 2-amino-6-(4-fluorophenyl)-N-methyl-5-(4-methylquinazolin-6-yl) nicotinamide]	4.95	0.0202	245.0	
Cc1ncnc2ccc(-c3c(Cl)cc(N)nc3-c3ccc(F)cc3)cc12 [Compound 10, 4-chloro-6-(4-fluorophenyl)-5-(4-methylquinazolin-6-yl)pyridin-2-amine]	0.438	0.002	219.0	
Cc1ccnc2ccc(-c3cc(C(N)=O)c(N)nc3-c3ccc(F)cc3)cc12 [Compound 22, 2-amino-6-(4-fluorophenyl)-5-(4-methylquinolin-6-yl)nicotinamide]	0.106	0.0016	66.3	
COCCn1cc(-c2cc(-c3ccc4ncnc(C)c4c3)c(-c3ccc(F)cc3)nc2N)cn1 [Compound 17, 6-(4-fluorophenyl)-3-(1-(2-methoxyethyl)-1H-pyrazol-4-yl)-5-(4-methylquinazolin-6-yl)pyridin-2-amine]	0.316		137.3	0.0023
COC(=O)c1cc(-c2ccc3ncnc(C)c3c2)c(-c2ccc(F)cc2)nc1N [Compound 3, methyl 2-amino-6-(4-fluorophenyl)-5-(4-methylquinazolin-6-yl) nicotinate]	1.09	0.0049	222.8	

From patent US20220017483A1, “AMINOPYRIDINE COMPOUND, PREPARATION METHOD THEREFOR AND USE THEREOF” (SICHUAN-KELUN-BIOTECH BIOPHARMACEUTICAL CO., LTD, priority 2018, published 2022)
